Columns and labels:
[1] = target: Mcl-1 protein (residues 171-323) (Homo sapiens (Human), UniProt Q07820); assay: Inhibition of Mcl-1 by fluorescence polarization (FP) competitive binding assay with FAM-Bid tracer; conditions: 2 nM FAM-Bid, 20 nM Mcl-1, 30 min, read-out: Mc1-1 (FP)
Protocol: Inhibition of Mcl-1 by fluorescence polarization (FP) assay.
The method used a fluorescein labelled peptide (FAM-Bid) which binds to the Mcl-1 protein leading to an increased anisotropy measured in milli-polarization (mP) values using a plate reader.
A 10-points serial dilution of each compound was prepared in DMSO and 5 μL solution was transferred into flat bottomed, 96-well back plate (final DMSO concentration 5%). 120 μL of Buffer (PBS, 0.01% BGG (Sigma Cat. #SRE0011), 0.01% Triton X-100), containing the Fluorescein labelled peptide (Final concentration 2 nM) and Mcl-1 protein (final concentration 20 nM) was then added. […] 10-points dose response curves were plotted with GraphPad software using Sigmoidal Dose-Response Model and the IC50 values were determined by nonlinear regression fitting of the competition curves.

[2] = Microsome clearance assay, rat; format: in vitro ADME; conditions: 0.5 mg/ml protein, 1 mM NADPH, 60 minutes; for Rat Liver Microsome Clint (μL/min/mg protein): rat liver microsomes, 5 μM; for microsomal CLint at 5 μM: male, Wister, rat, pooled liver microsomes, pH 7.4, rat liver microsomes, read-out: Rat Liver Microsome Clint (μL/min/mg protein)
Protocol: (§1) Representative Compounds of the Disclosure were tested in a microsome clearance assay. Pooled liver microsomes (20 mg/ml) from human, male Wister rat, and male CD-1 mouse were obtained from BD Bioscience (Franklin Lakes, N.J. USA). Incubation reaction mixtures contained a final concentration of 0.1M sodium phosphate buffer (pH 7.4), 0.5 mg/ml microsomal protein, 5 μM of test sample and 1 mM NADPH in a total volume of 400 μl. The incubations were done for 60 minutes and 300 μl of the mixtures was transferred to 150 μl of ice cold methanol to terminate reactions. After vortexes for 3 minutes and centrifuged at 4000 rpm at 4° C. for 10 minutes, the clear supernatant was used directly for analysis. The samples were analyzed by Applied Biosystems API 3200 Q TRAP LC/MS/MS system using electrospray ionization mode.

[3] = Microsome clearance assay, human; format: in vitro ADME; conditions: 0.5 mg/ml protein, 1 mM NADPH, 60 minutes; for Human Liver Microsome Clint (μL/min/mg protein): human liver microsomes, 5 μM; for microsomal CLint at 5 μM: human, pooled liver microsomes, pH 7.4, human liver microsomes, read-out: Human Liver Microsome Clint (μL/min/mg protein)
Protocol: as §1

[4] = Microsome clearance assay, mouse; format: in vitro ADME; conditions: 0.5 mg/ml protein, 1 mM NADPH, 60 minutes; for Mouse Liver Microsome Clint (μL/min/mg protein): mouse liver microsomes, 5 μM; for microsomal CLint at 5 μM: male, CD-1, mouse, pooled liver microsomes, pH 7.4, mouse liver microsomes, read-out: Mouse Liver Microsome Clint (μL/min/mg protein)
Protocol: as §1

[5] = system: NCI-H929 cells; assay: Cell viability assay (NCI-H929 cells), CCK-8; format: cell-based; conditions: 5% FBS
Protocol: Cell Viability Assay (NCI-H929 cells)
NCI-H929 cells were obtained from American Type Culture Collection (ATCC). Cells were maintained in the recommended culture medium (RPMI 1640) with 10% FBS and 0.05 mM BME at 37° C. and an atmosphere of 5% CO2.
The effect of Compounds on cell viability was determined using Cell Counting Kit-8 (CCK-8) assay according to the manufacturer's instructions. 95 μL of NCI-H929 cell suspension (20000 cells/well) in culture medium were seeded into 96-well plates and cultured 4 hrs. Each tested compound was serially diluted in DMSO, then 5 μL of the compound or DMSO was diluted in 95 μL medium once more. At last, 5 μL of the compound dilution was added to the corresponding well of the cell plate. After the addition of the tested compound, the cells were incubated at 37° C. in an atmosphere of 5% CO2 for 24 hrs. At the end, 10 μL of CCK-8 solution was added to each well of the plate and incubated for 1-4 hours. The plates were read at 450 nm on the microplate reader (BioTek Synergy 1MF). The readings were normalized to the vehicle cells, and the IC50 was calculated by nonlinear regression analysis using GraphPad Prism 6 software.

[6] = system: OPM-2 cells; assay: Cell viability assay (OPM-2 cells), CCK-8; format: cell-based; conditions: 5% FBS
Protocol: Cell Viability Assay (OPM-2 cells)
OPM-2 cells were obtained from Deutsche Sammlung von Mikroorganismen and Zellkulturen GmbH (DSMZ). Cells were maintained in the recommended culture medium with 10% FBS at 37° C. and an atmosphere of 5% CO2.
The effect of representative Compounds of the Disclosure on cell viability was determined using Cell Counting Kit-8 (CCK-8) assay (Shanghai Life iLab Bio Technology) according to the manufacturer's instructions. Each tested compound was serially diluted in culture medium, 100 μL of the compound dilution was added into 96-well plates. 100 μL of an OPM-2 cell suspension (20000 cells/well) in culture medium were seeded into the corresponding well of the plate and the cells were incubated at 37° C. in an atmosphere of 5% CO2 for 24 hours. In the next day, 20 μL of CCK-8 solution was added to each well of the plate and incubated for 4 hours.
The plates were read at 450 nm on the microplate spectrophotometer (SpectraMax plus 384, Molecular devices). The readings were normalized to the vehicle cells, and the IC50 was calculated by nonlinear regression analysis using GraphPad Prism 6 software.

Chain of Mcl-1 protein (residues 171-323) (Q07820 171-323): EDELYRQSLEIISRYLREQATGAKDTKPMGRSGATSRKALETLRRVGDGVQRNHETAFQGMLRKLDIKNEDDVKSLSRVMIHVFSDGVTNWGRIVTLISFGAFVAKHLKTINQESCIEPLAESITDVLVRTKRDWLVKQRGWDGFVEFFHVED

| Compound | IC50 [1] | Rat Liver Microsome Clint (μL/min/mg protein) [2] | Human Liver Microsome Clint (μL/min/mg protein) [3] | Mouse Liver Microsome Clint (μL/min/mg protein) [4] | IC50 ([5]; 24 hrs) | IC50 ([6]; 24 hours) | microsomal CLint at 5 μM [2] | microsomal CLint at 5 μM [3] | microsomal CLint at 5 μM [4] | IC50 ([5]; Homo sapiens, NCI-H929, 24 h) | IC50 ([6]; Homo sapiens, OPM-2, 24 h) |
| --- | --- | --- | --- | --- | --- | --- | --- | --- | --- | --- | --- |
| Cc1c(C(=O)O)n2c3ccc(Cl)c(c13)-c1c(nn(C)c1C)CSCc1cc(n(C)n1)CSc1cc(c3ccc(F)cc3c1)OCCC2 (atropisomer, axis not shown) [Cpd. No. 16, (S)-(Z)-1^5-chloro-9^6-fluoro-1^3,2^1,2^5,6^1-tetramethyl-1^111,2^1H,6^1H-10-oxa-4,8-dithia-1(4,1)-indola-2(4,3),6(3,5)-dipyrazola-9(3,1)-naphthalenacyclotridecaphane-1^2-carboxylic acid] | 3200 nM | 64.6 μL/min/mg protein | 23.4 μL/min/mg protein | 135 μL/min/mg protein | 2240 nM | 4050 nM |  |  |  |  |  |
| Cc1c(C(=O)O)n2c3ccc(Cl)c(c13)-c1c(nn(C)c1C)CN(S(C)(=O)=O)Cc1cc(n(C)n1)CSc1cc(c3ccc(F)cc3c1)OCCC2 (atropisomer, axis not shown) [Cpd. No. 33, (R)-(Z)-1^5-chloro-9^6-fluoro-1^3,2^1,2^5, 6^1-tetramethyl-4-(methylsulfonyl)-1^1H,2^1H, 6′H-10-oxa-8-thia-4-aza-1(4,1)-indola-2(4,3),6(3,5)-dipyrazola-9(3,1)-naphthalenacyclotridecaphane-1^2-carboxylic acid] | 5 nM | 8.6 μL/min/mg protein | <2.8 μL/min/mg protein | 16.0 μL/min/mg protein | 107 nM | 190 nM |  |  |  |  |  |
| Cc1c(C(=O)O)n2c3ccc(Cl)c(c13)-c1c(nn3c1COCC3)CSCc1cc(n(C)n1)CSc1cc(c3ccccc3c1)OCCC2 [Cpd. No. 1, (Z)-1^5-chloro-1^3,6^1-dimethyl-2^6,2^7-dihydro-1^1H,2^4H,6^1H-10-oxa-4,8-dithia-2(3,2)-pyrazolo[5,1-c][1,4]oxazina-1(4,1)-indola-6(3,5)-pyrazola-9(3,1)-naphthalenacyclotridecaphane-1^2-carboxylic acid] | 7 nM |  |  |  |  |  | 34.4 µL/min/mg | 35.2 µL/min/mg | 49 µL/min/mg | 165 nM | 1540 nM |
| CCc1c(C(=O)O)n2c3ccc(Cl)c(c13)-c1c(nn(C)c1C)CSCc1cc(n(C)n1)CSc1cc(c3ccccc3c1)OCCC2 [Cpd. No. 8, (Z)-1^5-chloro-1^3-ethyl-2^1,2^5,6^1-trimethyl-1^1H,2^1H,6^111-10-oxa-4,8-dithia-1(4,1)-indola-2(4,3),6(3,5)-dipyrazola-9(3,1)-naphthalenacyclotridecaphane-1^2-carboxylic acid] | 21 nM |  |  |  |  |  | 299 µL/min/mg | 86.8 µL/min/mg | 325 µL/min/mg | 70 nM | 268 nM |
| Cc1c(C(=O)O)n2c3ccc(Cl)c(c13)-c1c(nn(C)c1C)CSCc1cc(n(C(C)C)n1)CSc1cc(c3ccc(F)cc3c1)OCCC2 [Cpd. No. 17, (Z)-1^5-chloro-9^6-fluoro-6^1-isopropyl-1^3,2^1,2^5-trimethyl-1^1H,2^1H,6^1H-10-oxa-4,8-dithia-1(4,1)-indola-2(4,3),6(3,5)-dipyrazola-9(3,1)-naphthalenacyclotridecaphane-1^2-carboxylic acid] |  |  |  |  |  |  | 46.6 µL/min/mg | 19.4 µL/min/mg | 29.2 µL/min/mg | 77 nM | 94 nM |
| Cc1c(C(=O)O)n2c3ccc(Cl)c(c13)-c1c(nn(C)c1C)CN(C(=O)c1nccn1C)Cc1cc(n(C)n1)CSc1cc(c3ccc(F)cc3c1)OCCC2 [Cpd. No. 44, (Z)-1^5-chloro-9^6-fluoro-1^3,2^1,2^5,6^1-tetramethyl-4-(1-methyl-1H-imidazole-2-carbonyl)-1^1H,2^1H,6^1H-10-oxa-8-thia-4-aza-1(4,1)-indola-2(4,3),6(3,5)-dipyrazola-9(3,1)-naphthalenacyclotridecaphane-1^2-carboxylic acid] | 23 nM |  |  |  |  |  |  |  |  | 780 nM | 1160 nM |
| Cc1c(C(=O)O)n2c3ccc(Cl)c(c13)-c1c(nn(C)c1C)CN(S(=O)(=O)C(F)(F)F)Cc1cc(n(C)n1)CSc1cc(c3ccccc3c1)OCCC2 [Cpd. No. 47, (Z)-1^5-chloro-1^3,2^1,2^5,6^1-tetramethyl-4-((trifluoromethyl)sulfonyl)-1^1H,2^1H,6^1H-10-oxa-8-thia-4-aza-1(4,1)-indola-2(4,3),6(3,5)-dipyrazola-9(3,1)-naphthalenacyclotridecaphane-1^2-carboxylic acid] | 5 nM |  |  |  |  |  |  |  |  | 170 nM | 229 nM |
| Cc1nn(C)c2c1-c1c(Cl)ccc3c1c(C)c(C(=O)O)n3CCCOc1cc(cc3ccccc13)SCc1cc(nn1C)CN(S(C)(=O)=O)C2 [Cpd. No. 48, (Z)-1^5-chloro-1^3,2^1,2^3,6^1-tetramethyl-4-(methylsulfonyl)-1^1H,2^1H,6^1H-10-oxa-8-thia-4-aza-1(4,1)-indola-2(4,5),6(3,5)-dipyrazola-9(3,1)-naphthalenacyclotridecaphane-1^2-carboxylic acid] | 12 nM |  |  |  |  |  |  |  |  | 243 nM | 587 nM |
| Cc1c(C(=O)O)n2c3ccc(Cl)c(c13)-c1c(nn(C)c1C)CN(CC(=O)N(C)C)Cc1cc(n(C)n1)CSc1cc(c3ccc(F)cc3c1)OCCC2 [Cpd. No. 54, (Z)-1^5-chloro-4-(2-(dimethylamino)-2-oxoethyl)-9^6-fluoro-1^3,2^1,2^5, 6^1--tetramethyl-1^1H,2^1H,6^1H-10-oxa-8-thia-4-aza-1(4,1)-indola-2(4,3),6(3,5)-dipyrazola-9(3,1)-naphthalenacyclotridecaphane-1^2-carboxylic acid] | 27 nM |  |  |  |  |  |  |  |  | 673 nM | 3480 nM |
| Cc1c(C(=O)O)n2c3ccc(Cl)c(c13)-c1c(nn(C)c1C)CN(c1ccccc1)Cc1cc(n(C)n1)CSc1cc(c3ccc(F)cc3c1)OCCC2 [Cpd. No. 55, (Z)-1^5-chloro-9^6-fluoro-1^3,2^1,2^5,6^1-tetramethyl-4-phenyl-1^1H,2^1H,6^1E-10-oxa-8-thia-4-aza-1(4,1)-indola-2(4,3),6(3,5)-dipyrazola-9(3,1)-naphthalenacyclotridecaphane-1^2-carboxylic acid] | 24 nM |  |  |  |  |  |  |  |  | 145 nM | 744 nM |
| (Z)-1^5-chloro-9^6-fluoro-1^3,2^1,2^3,6^1-tetramehtyl-4-(methylsulfonyl)-1^1H,2^1H,6^1H-10-oxa-8-thia-4-aza-1(4,1)-indola-2(4,5),6(3,5)-dipyrazola-9(3,1)- naphthalenacyclotridecaphane-1^2-carboxylic acid [Cpd. No. 49] | 5 nM |  |  |  | 204 nM | 308 nM |  |  |  |  |  |

— patent publication US11691989B2, “Macrocyclic indoles as Mcl-1 inhibitors” (ASCENTAGE PHARMA (SUZHOU) CO., LTD., priority 2018, dated 2023)
